Key:
pMel-1 CD8^+ T-cells [1] = assay: In vitro activation of pMel-1 CD8+ T-cells with gp100 peptide with or without MEKi; format: cell-based, mouse
Protocol: Mice and cell culture. 4-6-week-old C57BL/6 mice (wild-type (WT) and pMel-1) from Jackson Laboratory or in-house bred pMel-1 mice with transgenic CD8^+ T-cells having TCR from melanoma-specific gp10025-33 peptide were used as outlined in various experiments. Animals had free access to water and food. All experiments were performed under protocols approved by the Augusta University Georgia Cancer Center Institutional Animal Care and Use Committee (IACUC). Cancer cell lines used in the present study included TC1 (kindly provided by Dr. T-C Wu at Johns Hopkins University) and B16-melanoma (obtained from American Type Culture Collection (ATCC)). […] Primary murine CD8^+ cells were isolated by fluorescence-activated cell sorting (FACS) and in some cases by negative selection using magnetic beads (Miltenyi Biotec) and cultured in RPMI 1640 medium supplemented with 10% FBS, 2 mM glutamine, 10 mM HEPES and 55 μM β-mercaptoethanol. […]
Flow cytometry analyses. […] TMRM (Tetramethylrhodamine, methyl ester) is a cell-permeant, cationic, red-orange fluorescent dye that is readily sequestered by active mitochondria and has been used for estimation of mitochondrial potential was used as described before (Sukumar, M., et al., Cell Metabolism, 23: 63-76 (2016)). […]
Metabolic assays. […] OCR and ECAR were measured with an XFp flux analyzer (Seahorse Bioscience). […]

AB1-HA tumor model = settings: CTX treatment at Day 9; cited from earlier work
[2] = test system: Abl1, AKT3, c-RAF, CamK1, CDK2, c-Met; settings: cited from earlier work
pMel-1 CD8^+ T-cells [3] = assay: Antigen re-challenge (recall response) of activated CD8+ T-cells; format: cell-based, mouse; settings: re-challenge with gp100 peptide 72 hrs; vs untreated
Source text: FIGS. 4A-4C show FACS analysis of memory phenotype of activated cells (gp100 vs gp100 +MEKi) after antigen (Ag) re-challenge with gp100 peptide for 72 hrs. […]. FIGS. 4M-4O show the scheme of ACT of B16 tumor-bearing mice with respectively activated CD8^+ T-cells as indicated FIG. 4M, estimation of tumor volume FIG. 4N and percent survival FIG. 4O in treated groups. FIGS. 4P-4R show the estimation of numbers of adoptively transferred cells in spleens of treated mice 30 days after ACT as indicated. For the untreated (UT) and control (CTX) groups where the endpoint for euthanasia was reached earlier, the mice were sacrificed and spleens harvested and stored as single-cell suspensions at −80° C. At the end of the study, all samples were stained and processed together for FACS analysis. Representative of two experiments is shown. *P<0.05, **P<0.01, ***P<0.001.
Cell activation, drug treatment and adoptive transfer. FACS-sorted CD8^+ cells from pMel-1 mice were activated with gp100 peptide ([…] (SEQ ID NO:2); 1 μM/10^6 cells/mL) either alone or in combination with MEKi (500-1000 nM) in T-cell medium supplemented with 30 units of IL2 for 48 hours unless otherwise stated. In some experiments, at 48 h cells were washed and re-incubated in IL2-containing medium supplemented with gp100 and/or anti-OX40-Ab for 72 hours. […]

MEK1 = MEK1 (Homo sapiens, UniProt Q02750); settings: cited from earlier work
ERK1 or ERK2 = settings: cited from earlier work

MEK1, sequence (Q02750 whole entry, species assumed): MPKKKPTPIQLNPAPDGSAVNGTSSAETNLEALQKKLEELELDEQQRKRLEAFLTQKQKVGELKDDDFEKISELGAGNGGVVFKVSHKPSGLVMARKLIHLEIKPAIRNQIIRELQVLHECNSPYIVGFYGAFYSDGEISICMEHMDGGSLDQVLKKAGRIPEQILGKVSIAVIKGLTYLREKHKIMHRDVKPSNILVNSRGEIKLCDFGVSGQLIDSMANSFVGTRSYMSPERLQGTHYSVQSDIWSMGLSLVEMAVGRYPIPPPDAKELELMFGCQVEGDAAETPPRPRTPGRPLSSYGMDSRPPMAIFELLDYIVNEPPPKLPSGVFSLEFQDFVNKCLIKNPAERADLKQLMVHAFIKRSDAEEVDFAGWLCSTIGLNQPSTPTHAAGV

**Q.** Which “cell proliferation of MEKi-treated pMel-1 CD8+ T-cells in the presence of etomoxir” value (pMel-1 CD8^+ T-cells [1]) does the source give for `CCOC(=O)[C@@]1(CCCCCCOc2ccc(Cl)cc2)CO1` [etomoxir] here?
**A.** significant decrease in cell proliferation

**Q.** With `O=P1(N(CCCl)CCCl)NCCCO1` (stereo not shown) [CTX, Cyclophosphamide] as the compound, how does the cure rate (AB1-HA tumor model) read?
**A.** 75%

**Q.** Which “proliferation of MEKi-treated CD8+ T-cells with oligomycin” value (pMel-1 CD8^+ T-cells [1]; gp100 activated, MEKi-treated cells) does the source give for `CC[C@H]1/C=C/C=C/C[C@@H](C)[C@H](O)[C@@](C)(O)C(=O)[C@@H](C)[C@H](O)[C@@H](C)C(=O)[C@@H](C)[C@H](O)[C@@H](C)/C=C/C(=O)O[C@@H]2[C@H](C)[C@H](CC1)O[C@]1(CC[C@H](C)[C@H](C[C@@H](C)O)O1)[C@H]2C` [oligomycin] here?
**A.** inhibition of proliferation

**Q.** For `Cn1c(=O)c(F)c(Nc2ccc(I)cc2F)c2c(=O)n(C[C@@H](O)CO)cnc21` [TAK-733], which “activity on Abl1, AKT3, c-RAF, CamK1, CDK2, c-Met, etc.” value [2] is on record?
**A.** inactive

**Q.** Which “recall response, expansion of terminal effector cells (CD62L-CD44+)” value (pMel-1 CD8^+ T-cells [3]) does the source give for `Cn1cnc2c(F)c(Nc3ccc(Br)cc3Cl)c(C(=O)NOCCO)cc21` [Selumetinib] here?
**A.** more than 2.5 fold

**Q.** What does the source list for `COc1cccc(-c2cc(=O)c3ccccc3o2)c1N` [PD98059]?
**A.** MEK-1-mediated activation of MAPK (MEK1): specifically inhibits; direct inhibition of ERK1 or ERK2 (ERK1 or ERK2): does not directly inhibit
